From patent US4442087A (priority 1979, dated 1984)

Key:
Assay type in all cases: cell-based
[1] = tested on: Rabbit spleen cells (RK-13 cells used for determination); test: IF induction in vitro, rabbit cells; conditions: 1.0 μg/ml, 25 °C 24 h
Method: (§1) (A) IF induction and determination of IF activity:
(§2) A spleen cell suspension (10^7 cells/ml) was prepared by the method of hereinafter described Experiment 1 using an Eagle MEM medium (commercial product of Nissui Seiyaku K.K., Tokyo) containing a 10% calf serum (which was replaced by a 10% fetal cattle serum in the cases of human tests), each of which fraction (1 ml) was added with the sample of the active substance at a given concentration and incubated at a given temperature. The cultured liquor was centrifuged to separate a supernatant for use to determine the IF activity. Furthermore, in the cases of human tests, the fresh spleen was collected from a person (adult killed by external wounds) and used for the preparation of a leucocytes suspension on each occasion, and also blood was collected from the vein at the armpit of a person (adult, healthy) from which the serum was separated to use for the preparation of a serum suspension on each occasion. The IF activities were determined by using the cells shown in Table 5 by the method of hereinafterdescribed Experiment 1 and indicated in Table 6.

[2] = tested on: Mouse spleen cells (L cells used for determination); test: IF induction in vitro, mouse cells; conditions: 1.0 μg/ml, 37 °C 24 h
Method: as §1, §2

[3] = tested on: Human spleen cells (FL cells used for determination); test: IF induction in vitro, human spleen cells; conditions: 1.0 μg/ml, 25 °C 24 h
Method: as §1, §2

Poly: IC
IF activity in vitro [1]: 220
IF activity in vitro [2]: 120
IF activity in vitro [3]: < 5
